In US20240384268A1, “Oligonucleotides” (Hudson Institute of Medical Research, priority 2021, published 2024):
In the oligonucleotide strings, read from the 5' end, every base follows the letter of its sugar. An asterisk marks phosphorothioate; unmarked linkages are phosphodiester. Other units and linkages are bracketed, terminal groups are in braces. A string of capitals states the bases alone. d = 2'-deoxy (DNA); m = 2'-O-methyl

Target: cGAS (Homo sapiens, UniProt Q8N884)
Assay: ISD70-driven IP-10 (and IFN-β) production in THP-1 cells, ELISA
Type: cell-based
Design: endogenous in cells; host or cells: THP-1 (undifferentiated)
Details: THP-1; 100 nM ASO overnight, then ISD70 2.5 μg/ml 7-8 h; percentage of ISD70 only

cGAS, sequence (Q8N884 whole entry): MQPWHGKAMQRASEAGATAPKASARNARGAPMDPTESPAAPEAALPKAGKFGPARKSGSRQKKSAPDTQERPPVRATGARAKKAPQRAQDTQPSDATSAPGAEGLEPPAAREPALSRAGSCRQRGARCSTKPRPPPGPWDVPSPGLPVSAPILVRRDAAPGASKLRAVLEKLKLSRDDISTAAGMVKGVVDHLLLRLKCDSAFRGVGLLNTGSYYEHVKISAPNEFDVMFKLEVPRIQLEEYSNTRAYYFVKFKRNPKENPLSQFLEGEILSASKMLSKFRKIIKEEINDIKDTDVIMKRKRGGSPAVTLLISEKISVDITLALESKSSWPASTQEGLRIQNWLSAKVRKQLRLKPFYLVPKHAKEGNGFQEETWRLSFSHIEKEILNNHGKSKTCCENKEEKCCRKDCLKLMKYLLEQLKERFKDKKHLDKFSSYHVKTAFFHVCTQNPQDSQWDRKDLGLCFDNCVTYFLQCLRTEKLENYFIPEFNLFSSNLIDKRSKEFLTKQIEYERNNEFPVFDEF

Substance | cGAS-100 nM: averaged IP-10 levels relative to ISD70 [%]
mC*mA*mC*mU*mG*T*A*T*T*T*T*A*T*T*A*mC*mA*mG*mA*mA (mC*mA*mC*mU*mG*dT*dA*dT*dT*dT*dT*dA*dT*dT*dA*mC*mA*mG*mA*mA; antisense) [[LINC-PINT]2990] | 69.47
mC*mA*mG*mG*mC*C*T*C*C*A*G*T*G*T*C*mU*mU*mC*mU*mC (mC*mA*mG*mG*mC*dC*dT*dC*dC*dA*dG*dT*dG*dT*dC*mU*mU*mC*mU*mC; antisense) [[CDKN2B-AS1]2219] | 99.38
mC*mA*mU*mC*mC*C*T*T*C*T*G*C*T*G*C*mC*mA*mA*mG*mC (mC*mA*mU*mC*mC*dC*dT*dT*dC*dT*dG*dC*dT*dG*dC*mC*mA*mA*mG*mC; antisense) [[LINC-PINT]98] | 70.60
mC*mC*mA*mU*mC*C*C*T*T*C*T*G*C*T*G*mC*mC*mA*mA*mG (mC*mC*mA*mU*mC*dC*dC*dT*dT*dC*dT*dG*dC*dT*dG*mC*mC*mA*mA*mG; antisense) [ILING-PINT199] | 85.43
mC*mC*mA*mU*mG*T*C*C*C*A*G*G*C*C*T*mC*mC*mA*mG*mU (CCAUGTCCCAGGCCTCCAGU; sugars from the 5' end m5 d10 m5, all phosphorothioate, methylation of C not given here) [[CDKN2B-AS1]2227] | 36.34
mC*mC*mC*mU*mA*A*T*G*C*T*T*T*C*C*T*mC*mU*mC*mC*mA (mC*mC*mC*mU*mA*dA*dT*dG*dC*dT*dT*dT*dC*dC*dT*mC*mU*mC*mC*mA; antisense) [[LINC-PINT1877 KL] | 89.09
mC*mC*mC*mU*mU*C*T*C*T*C*T*G*G*T*C*mC*mC*mA*mU*mC (mC*mC*mC*mU*mU*dC*dT*dC*dT*dC*dT*dG*dG*dT*dC*mC*mC*mA*mU*mC; antisense) [[LINC-PINT]114] | 84.38
mC*mC*mU*mA*mG*A*A*A*G*A*A*G*C*A*A*mA*mG*mA*mU*mU (mC*mC*mU*mA*mG*dA*dA*dA*dG*dA*dA*dG*dC*dA*dA*mA*mG*mA*mU*mU) [[CDKN2B-AS1]1522] | 60.90
mC*mC*mU*mU*mC*T*C*T*C*T*G*GT*C*C*mC*mA*mU*mC*mC (CCUUCTCTCTGGTCCCAUCC; antisense; chemistry not fully specified) [[LINC-PINT]113] | 103.79
mC*mC*mU*mU*mC*T*G*C*T*G*C*C*A*A*G*mC*mC*mC*mC*mA (mC*mC*mU*mU*mC*dT*dG*dC*dT*dG*dC*dC*dA*dA*dG*mC*mC*mC*mC*mA; antisense) [[LINC-PINT]94] | 104.33
mC*mU*mC*mU*mC*T*G*G*T*C*C*C*A*T*C*mC*mC*mU*mU*mC (mC*mU*mC*mU*mC*dT*dG*dG*dT*dC*dC*dC*dA*dT*dC*mC*mC*mU*mU*mC; antisense) [[LINC-PINT]109] | 80.22
mC*mU*mU*mC*mU*C*T*C*T*G*G*T*C*C*C*mA*mU*mC*mC*mC (mC*mU*mU*mC*mU*dC*dT*dC*dT*dG*dG*dT*dC*dC*dC*mA*mU*mC*mC*mC) [[LINC-PINT]112] | 82.64
mC*mU*mU*mU*mA*T*A*T*T*A*C*A*A*A*G*mC*mU*mA*mC*mU (mC*mU*mU*mU*mA*dT*dA*dT*dT*dA*dC*dA*dA*dA*dG*mC*mU*mA*mC*mU; antisense) [[LINC-PINT]2755] | 92.54
mG*mA*mA*mA*mA*G*A*T*T*A*T*C*T*T*C*mU*mU*mU*mU*mA (GAAAAGATTATCTTCUUUUA; sugars from the 5' end m5 d10 m5, all phosphorothioate, methylation of C not given here) [[CDKN2B-AS1]2134] | 51.49
mG*mA*mU*mU*mA*A*A*A*C*A*G*A*T*T*A*mA*mU*mA*mC*mA (mG*mA*mU*mU*mA*dA*dA*dA*dC*dA*dG*dA*dT*dT*dA*mA*mU*mA*mC*mA) [[CDKN2B-AS1]1773] | 89.36
mG*mC*mA*mA*mG*G*C*A*G*A*G*A*A*A*C*mU*mC*mC*mA*mG (GCAAGGCAGAGAAACUCCAG; sugars from the 5' end m5 d10 m5, all phosphorothioate, methylation of C not given here) [[LINC-PINT]1315 KL] | 30.64
mG*mC*mG*mU*mA*G*T*T*T*C*T*C*T*T*C*mC*mU*mC*mC*mC (GCGUAGTTTCTCTTCCUCCC; sugars from the 5' end m5 d10 m5, all phosphorothioate, methylation of C not given here) [[LINC-PINT]935 KL] | 50.62
mG*mG*mA*mU*mU*A*A*A*A*C*A*G*A*T*T*mA*mA*mU*mA*mC (GGAUUAAAACAGATTAAUAC; sugars from the 5' end m5 d10 m5, all phosphorothioate, methylation of C not given here) [[CDKN2B-AS1]1774] | 50.11

Substance | cGAS-100 nM: averaged IP-10 levels relative to ISD70 [%]
mG*mG*mG*mU*mC*T*C*C*T*C*C*A*C*A*C*mC*mC*mU*mU*mC (GGGUCTCCTCCACACCCUUC; antisense; sugars from the 5' end m5 d10 m5, all phosphorothioate, methylation of C not given here) [[LINC-PINT]128] | 37.83
mG*mG*mU*mC*mC*C*A*T*C*C*C*T*T*C*T*mG*mC*mU*mG*mC (GGUCCCATCCCTTCTGCUGC; sugars from the 5' end m5 d10 m5, all phosphorothioate, methylation of C not given here) [[LINC-PINT]103] | 45.23
mG*mG*mU*mC*mU*C*C*T*C*C*A*C*A*C*C*mC*mU*mU*mC*mU (mG*mG*mU*mC*mU*dC*dC*dT*dC*dC*dA*dC*dA*dC*dC*mC*mU*mU*mC*mU; antisense) [[LINC-PINT]127] | 36.95
mG*mG*mU*mG*mG*C*C*A*C*A*G*G*C*A*A*mC*mG*mU*mC*mA (GGUGGCCACAGGCAACGUCA; antisense; sugars from the 5' end m5 d10 m5, all phosphorothioate, methylation of C not given here) [[CDKN2B-AS1]2196] | 48.58
mG*mU*mC*mA*mA*A*C*C*T*A*G*A*A*A*G*mA*mA*mG*mC*mA (mG*mU*mC*mA*mA*dA*dC*dC*dT*dA*dG*dA*dA*dA*dG*mA*mA*mG*mC*mA; antisense) [[CDKN2B-AS1]1528] | 68.94
mG*mU*mC*mC*mC*A*G*G*C*C*T*C*C*A*G*mU*mG*mU*mC*mU (mG*mU*mC*mC*mC*dA*dG*dG*dC*dC*dT*dC*dC*dA*dG*mU*mG*mU*mC*mU; antisense) [[CDKN2B-AS1]2223] | 74.22
mG*mU*mC*mC*mC*A*T*C*C*C*T*T*C*T*G*mC*mU*mG*mC*mC (GUCCCATCCCTTCTGCUGCC; antisense; sugars from the 5' end m5 d10 m5, all phosphorothioate, methylation of C not given here) [[LINC-PINT]102] | 113.87
mG*mU*mC*mC*mG*T*A*C*C*T*C*C*A*C*C*mC″mA*mC*mC*mG [[LINC-PINT]727.1] | 86.09
mG*mU*mC*mU*mC*C*T*C*C*A*C*A*C*C*C*mU*mU*mC*mU*mC (mG*mU*mC*mU*mC*dC*dT*dC*dC*dA*dC*dA*dC*dC*dC*mU*mU*mC*mU*mC; antisense) [[LINC-PINT]126] | 114.36
mG*mU*mU*mC*mA*G*T*C*A*G*A*T*C*G*C*mU*mG*mG*mG*mA (mG*mU*mU*mC*mA*dG*dT*dC*dA*dG*dA*dT*dC*dG*dC*mU*mG*mG*mG*mA) [[LINC-PINT]412 KL] | 93.74
mU*mA*mA*mA*mA*T*A*A*G*G*G*G*A*A*T*mA*mG*mG*mG*mG (mU*mA*mA*mA*mA*dT*dA*dA*dG*dG*dG*dG*dA*dA*dT*mA*mG*mG*mG*mG) [[CDKN2B-AS1]80] | 110.58
mU*mC*mC*mC*mA*A*C*T*C*T*T*C*T*A*A*mC*mU*mC*mG*mU (mU*mC*mC*mC*mA*dA*dC*dT*dC*dT*dT*dC*dT*dA*dA*mC*mU*mC*mG*mU; antisense) [[LINC-PINT]1284 KL] | 99.64
mU*mC*mC*mC*mA*T*C*C*C*T*T*C*T*G*C*mU*mG*mA*mC*mA (UCCCATCCCTTCTGCUGACA; sugars from the 5' end m5 d10 m5, all phosphorothioate, methylation of C not given here) [[LINC-PINT]101] | 86.62
mU*mC*mU*mC*mC*A*T*G*T*C*C*C*A*G*G*mC*mC*mU*mC*mC (mU*mC*mU*mC*mC*dA*dT*dG*dT*dC*dC*dC*dA*dG*dG*mC*mC*mU*mC*mC; antisense) [[CDKN2B-AS1]2230] | 94.78
mU*mC*mU*mC*mU*C*T*G*G*T*C*C*C*A*T*mC*mC*mC*mU*mU (mU*mC*mU*mC*mU*dC*dT*dG*dG*dT*dC*dC*dC*dA*dT*mC*mC*mC*mU*mU; antisense) [[LINC-PINT]110] | 92.39
mU*mC*mU*mC*mU*G*G*T*C*C*C*A*T*C*C*mC*mU*mU*mC*mU (UCUCUGGTCCCATCCCUUCU; antisense; sugars from the 5' end m5 d10 m5, all phosphorothioate, methylation of C not given here) [[LINC-PINT]108] | 104.65
mU*mC*mU*mG*mG*T*C*C*C*A*T*C*C*C*T*mU*mC*mU*mG*mC (UCUGGTCCCATCCCTUCUGC; antisense; sugars from the 5' end m5 d10 m5, all phosphorothioate, methylation of C not given here) [[LINC-PINT]106] | 48.75
mU*mG*mA*mC*mA*A*A*A*C*A*A*T*A*A*T*mA*mA*mC*mA*mG (mU*mG*mA*mC*mA*dA*dA*dA*dC*dA*dA*dT*dA*dA*dT*mA*mA*mC*mA*mG) [[LINC-PINT]384] | 88.79

Same assay, conditions: THP-1; 2′OMe or PS oligos, 100-250 nM, pre-treatment as in figure legends; ISD70 2.5 μg/ml

Substance | inhibition of ISD70-driven IP-10 production (in words)
mG*mG*mU*mC*mC*C*A*T*C*C*C*T*T*C*T*mG*mC*mU*mG*mC (GGUCCCATCCCTTCTGCUGC; sugars from the 5' end m5 d10 m5, all phosphorothioate, methylation of C not given here) [[LINC-PINT]103] | significantly inhibiting ISD70-driven IP-10 production
